Like-named read-outs stand apart in the source and are kept apart here.
Legend:
[1] = Liver S9 Fraction Stability Assay
[2] = target: T1, recombinant human aromatase (Homo sapiens, UniProt P11511); test: Aromatization by recombinant human aromatase (CYP19+P450 reductase Supersomes); details: 10 μM, 37° C.
T1 sequence (P11511 1-503): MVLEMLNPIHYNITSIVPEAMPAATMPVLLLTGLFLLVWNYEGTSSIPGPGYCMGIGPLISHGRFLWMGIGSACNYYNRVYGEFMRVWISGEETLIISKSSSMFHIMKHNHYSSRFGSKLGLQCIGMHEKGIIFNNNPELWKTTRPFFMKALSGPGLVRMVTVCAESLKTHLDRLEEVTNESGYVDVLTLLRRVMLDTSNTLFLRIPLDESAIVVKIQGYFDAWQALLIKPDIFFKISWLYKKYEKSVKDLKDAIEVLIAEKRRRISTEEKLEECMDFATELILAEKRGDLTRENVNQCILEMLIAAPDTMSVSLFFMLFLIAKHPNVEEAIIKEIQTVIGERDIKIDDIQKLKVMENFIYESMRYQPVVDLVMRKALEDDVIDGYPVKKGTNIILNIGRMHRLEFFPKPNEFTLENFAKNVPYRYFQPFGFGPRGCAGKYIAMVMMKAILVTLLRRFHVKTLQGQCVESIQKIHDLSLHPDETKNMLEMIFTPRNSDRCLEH

[3] = target: T2, full-length, untagged, human estrogen receptors (ERα) (Homo sapiens, UniProt P03372); test: ERα fluorescence polarization (FP) binding assay
T2 construct: insect cell-expressed, full-length, untagged, human estrogen receptors; purchased Life Technologies (Carlsbad, Calif.); host or cells: insect cells
Protocol: (§1) Receptor Binding Assay Information—In certain of the following examples, hormone receptor binding assays were used to determine the receptor binding activities of monomeric compound embodiments to androgen (AR), progesterone (PR), estrogen alpha (ERα) or glucocorticoid (GR) receptors. For AR, PR or ERα, the respective receptors are added to novel, tight-binding, selective ligands tagged with a fluorescent molecule, to form a receptor-ligand complex with a high polarization value. This complex is then added to individual monomeric compound embodiments that are contained in well plates. If the monomeric compound binds to the respective receptors, it displaces the fluorescent ligand from the complex, resulting in a low polarization value. In such embodiments, the monomeric compound is characterized as a competitor. […] In such embodiments, the monomeric compound is characterized as a noncompetitor. The shift in polarization value in the presence of the monomeric compound is used to determine the relative affinity of monomeric compound for the receptor.
(§2) For the androgen, progesterone, and estrogen receptor binding assays described herein, the preparation of reagents and test procedures is performed according to the manufacturer's instructions (Life Technologies, Carlsbad, Calif.). The plates are covered to protect the reagents from light and incubated at 20-25° C. for 4-8 hrs.
For ERα data, the ERα fluorescence polarization (FP) assay was used, which provides a sensitive and efficient method for high-throughput screening of potential ER ligands. The kit uses insect cell-expressed, full-length, untagged, human estrogen receptors and a tight-binding, fluorescent estrogen ligand (Fluormone™ ES2) in a homogenous mix-and-read assay format. ERα was added to a fluorescent estrogen ligand to form an ERα/Fluormone™ ES2 complex. This complex was then added to individual compound embodiments contained in 96-well plates. […] The change in polarization value in the presence of a compound embodiment was used to determine relative affinity of a compound embodiment for ERα.

[4] = target: T3, human PR ligand-binding domain tagged with GST [PR-LBD (GST)] (Homo sapiens, UniProt P06401); test: PR fluorescence polarization (FP) binding assay; details: Fluormone PL Green
T3 construct: purchased Life Technologies (Carlsbad, Calif.)
T3 sequence (P06401 679-913 limits assumed): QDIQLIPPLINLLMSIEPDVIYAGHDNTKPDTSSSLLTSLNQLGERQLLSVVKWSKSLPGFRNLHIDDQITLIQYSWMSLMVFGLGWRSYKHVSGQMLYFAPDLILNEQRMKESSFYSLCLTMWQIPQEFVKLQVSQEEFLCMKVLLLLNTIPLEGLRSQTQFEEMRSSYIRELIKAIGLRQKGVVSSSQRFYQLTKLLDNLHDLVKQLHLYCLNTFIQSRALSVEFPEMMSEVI
Protocol: as §1
as §2, with “hrs. The fluorescence polarization of the samples is measured with 485 nm excitation and 530 nm emission interference filters.” for “hrs.”
In this example, PR binding activity was assessed using the PR fluorescence polarization (FP) assay, which provides a sensitive and efficient method for high-throughput screening of potential PR ligands. The kit uses human PR ligand-binding domain tagged with GST [PR-LBD (GST)], and a tight-binding, selective fluorescent progesterone ligand (Fluormone™ PL Green) in a homogenous mix-and-read assay format. Progesterone receptor [PR-LBD (GST)] was added to a fluorescent progesterone ligand (Fluormone™ PL Green) to form a PR-LBD (GST)/Fluormone™ PL Green complex resulting in a high polarization value. This complex was then added to individual compound embodiments in 96-well plates. Competitors displaced the fluorescent Fluormone™ PL Green ligand from the PR-LBD (GST)/Fluormone™ PL Green complex, causing the fluorescent ligand to tumble rapidly during its fluorescence lifetime, resulting in a low polarization value. […] The shift in polarization value in the presence of compound embodiments was used to determine relative affinity of compound embodiments for PR-LBD (GST). The fluorescence polarization of the samples was measured with 485 nm excitation and 530 nm emission interference filters. Results for monomeric compound embodiments wherein the R^2 groups is not present (such as to test compound activity after R^2 cleavage) are provided in Table 4.

castrated weanling rats = details: rat, in vivo
[5] = human liver S9, W/O NADPH, 1 μM
[6] = human liver S9, W/O NADPH, 10 μM
[7] = human liver S9, With NADPH, 1 μM
[8] = human liver S9, With NADPH, 10 μM

T2 sequence (P03372 whole entry): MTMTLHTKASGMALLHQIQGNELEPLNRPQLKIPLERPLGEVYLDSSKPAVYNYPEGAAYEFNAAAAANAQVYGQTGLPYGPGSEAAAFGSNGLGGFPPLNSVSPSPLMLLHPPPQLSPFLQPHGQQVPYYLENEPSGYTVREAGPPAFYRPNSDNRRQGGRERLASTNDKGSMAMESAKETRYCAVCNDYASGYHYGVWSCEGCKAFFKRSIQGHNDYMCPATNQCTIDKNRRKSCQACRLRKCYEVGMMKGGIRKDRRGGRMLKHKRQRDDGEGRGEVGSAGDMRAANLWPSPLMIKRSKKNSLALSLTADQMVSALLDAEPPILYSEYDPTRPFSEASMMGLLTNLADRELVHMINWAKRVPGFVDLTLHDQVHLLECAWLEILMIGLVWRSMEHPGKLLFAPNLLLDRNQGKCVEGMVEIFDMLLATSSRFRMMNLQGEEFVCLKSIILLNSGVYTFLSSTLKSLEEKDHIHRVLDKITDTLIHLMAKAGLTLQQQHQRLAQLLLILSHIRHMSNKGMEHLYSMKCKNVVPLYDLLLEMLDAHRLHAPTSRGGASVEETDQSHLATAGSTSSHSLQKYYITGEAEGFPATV

| Compound | % parent molecule remaining after 2 hours at 37° C. [1, 5] | % parent molecule remaining after 2 hours at 37° C. [1, 6] | % parent molecule remaining after 2 hours at 37° C. [1, 7] | % parent molecule remaining after 2 hours at 37° C. [1, 8] | % remaining at 60 min [2] | other results |
| --- | --- | --- | --- | --- | --- | --- |
| 7-α-methylnortestosterone dodecylcarbonate [CDB-4884] | 89% | 75% | 75% | 82% |  |  |
| 7α-t-Butyl Testosterone [CDB-4919] |  |  |  |  | 92.0% | IC50 ([3]; fluorescence polarization, Fluormone ES2, read-out: IC50 (nM) ERα): 10400 nM; IC50 ([4]; read-out: IC50 (nM) PR binding): 1400 nM |
| C[C@@H]1CC2=CC(=O)CC[C@@H]2[C@@H]2[C@@H]1[C@@H]1CC[C@H](O)[C@@]1(C)C[C@@H]2C [CDB-1321, dimethandrolone, reference compound] |  |  |  |  | 85.3% |  |
| C[C@@H]1CC2=CC(=O)CCC2C2C1C1CC[C@H](OC(=O)CCC(=O)O[C@H]3CCC4C5C(C6CCC(=O)C=C6C[C@H]5C)[C@@H](C)C[C@@]43C)[C@@]1(C)C[C@@H]2C (some centres unmarked) [CDB-4866] |  |  |  |  |  | AUC (Ventral Prostate) (castrated weanling rats): 1464 mg*week; duration of levator ani muscle weight increase (anabolic effects) (castrated weanling rats): sustained until Day 99 (Week 14); duration of ventral prostate weight increase (androgenic effects) (castrated weanling rats): sustained until Day 99 (Week 14); ventral prostate gland weights relative to vehicle (castrated weanling rats): increased |
| C[C@]12CCC(=O)C=C1CCC1C2CC[C@@]2(C)C1CC[C@@H]2OC(=O)CCC(=O)O[C@H]1CCC2C3CCC4=CC(=O)CC[C@]4(C)C3CC[C@@]21C (some centres unmarked) [CDB-4877] |  |  |  |  |  | AUC (Levator ani muscle) (castrated weanling rats): 2173 mg*week; AUC (Ventral Prostate) (castrated weanling rats): 524.4 mg*week; duration of ventral prostate weight increase (androgenic effects) (castrated weanling rats): sustained until Day 99 (Week 14); ventral prostate gland weights relative to vehicle (castrated weanling rats): increased |
| C#C[C@]1(OC(=O)CCCCCCCCCCC)CCC2C3CCC4=CC(=O)CCC4C3CC[C@@]21CC (some centres unmarked) [CDB-4880] | 78% | 86% | 54% | 76% |  |  |
| CCCCCCCCCCCCOC(=O)O[C@H]1CCC2C3CCC4=CC(=O)CC[C@]4(C)C3CC[C@@]21C (some centres unmarked) [CDB-4883, testosterone dodecylcarbonate] | 74% | 84% | 64% | 85% |  |  |
| C[C@@H]1CC2=CC(=O)CC[C@@H]2C2C1C1CC[C@H](OC(=O)CCNC(=O)CCC(=O)O[C@H]3CCC4C5C([C@@H](C)C[C@@]43C)[C@H]3CCC(=O)C=C3C[C@H]5C)[C@@]1(C)C[C@@H]2C (some centres unmarked) [CDB-4886] |  |  |  |  |  | duration of levator ani muscle weight increase (anabolic effects) (castrated weanling rats): sustained until Day 99 (Week 14) |
| C#C[C@]1(OC(=O)OC(C)(C)C)CCC2C3CCC4=CC(=O)CCC4C3CC[C@@]21CC (some centres unmarked) [CDB-4889] | 100≤ % | 100≤ % | 12% | 56% |  |  |
| CCCCCCCCCCCCOC(=O)O[C@H]1CCC2C3CCC4=CC(=O)CCC4=C3[C@@H](C)C[C@@]21C (some centres unmarked) [CDB-4892] | 88% | 77% | 75% | 82% |  |  |
| CC1CC2=CC(=O)CCC2(C)C2CCC3(C)C(O)CCC3C12 (stereo not drawn) [CDB-4911, 7β-methyl testosterone] |  |  |  |  | 3.4% | % remaining at 15 min [2]: 62.3%; % remaining at 30 min [2]: 33.5%; IC50 ([4]; read-out: IC50 (nM) PR binding): 415 nM |
| CC[C@@H]1CC2=CC(=O)CC[C@]2(C)C2CC[C@@]3(C)C(CC[C@@H]3O)C21 (stereo partly drawn) [CDB-4918, 7α-ethyl testosterone] |  |  |  |  | 0.1% | % remaining at 15 min [2]: 33.0%; % remaining at 30 min [2]: 0.2%; IC50 [3]: 10500 nM; IC50 ([4]; IC50 (nM) PR binding): 672 nM |
| CC12CCC(=O)C=C1CC(c1ccccc1)C1C2CCC2(C)C(O)CCC12 (stereo not drawn) [CDB-4920, 7α-Phenyl Testosterone] |  |  |  |  | 63.6% | IC50 [3]: 13500 nM; IC50 ([4]; IC50 (nM) PR binding): 463 nM |
| CC12CCC(=O)C=C1CC(c1ccccc1)C1C2CCC2(C)C(O)CCC12 (stereo not drawn) [CDB-4921, 7β-Phenyl Testosterone] |  |  |  |  | 62.5% | IC50 ([4]; read-out: IC50 (nM) PR binding): 787 nM |
| CCC1CC2=CC(=O)CCC2(C)C2CCC3(C)C(O)CCC3C12 (stereo not drawn) [CDB-4924, 7β-ethyl testosterone] |  |  |  |  | 0.3% | % remaining at 15 min [2]: 58.2%; % remaining at 30 min [2]: 25.4%; IC50 ([4]; read-out: IC50 (nM) PR binding): 842 nM |
| DMA linolate [CDB-4895] | 51% | 62% | 55% | 60% |  |  |
| DMA oleate [CDB-4893] | 60% | 55% | 54% | 51% |  |  |
